Values of other authors, collected in patent publication US20250339403A1, “Tryptamine Formulations and Uses Thereof” (Natural MedTech Pty Ltd, priority 2022, published 2025).
Read-outs that look alike come from different tables or passages of the source.

Legend:
[1] = not given; remark: listed apart in the source
[2] = weight-to-weight basis
[3] = in vivo
MAO = details: after administration

Q: What does the source list for `CN(C)CCc1c[nH]c2ccccc12` [DMT, N,N-dimethyltryptamine]?
A: psychotropic effects (after oral consumption): not experienced; psychotropic effects (after smoking an equivalent dose): noted; effectiveness (inhaled free-base DMT (0.07-0.28 mg/kg)): have not shown effectiveness; effectiveness (rectally administered (1.7 mg/kg of the bioxalate salt)): have not shown effectiveness; share of recovered compounds that was DMT-N-oxide (DMT-NO) ([1]; after oral administration): 3%; share of recovered compounds that were MAO-dependent IAA ([1]; after oral administration): 97%; unmetabolized DMT in blood samples and urine ([1]; after oral administration): no unmetabolized DMT; share of recovered metabolites that were MAO-dependent IAA ([1]; smoking DMT): 63%

Q: With `CN(C)CCc1c[nH]c2cccc(O)c12` [Psilocin, 3-[2-(dimethylamino)ethyl]-1H-indol-4-ol] as the compound, how does the “potency relative to psilocybin” value [2] read?
A: The value was “about 1.4 times”.

Q: With `COc1ccc2[nH]cc(CCN(C)C)c2c1` [Formulation 5-MeO-DMT, 5-methoxy-N,N-dimethyltryptamine] as the compound, how does the “amount required to induce hallucinations” value (inhalation) read?
A: The value was 6 to 20 mg.

Q: And the “amount required to induce hallucinations” value (intravenous injection)?
A: The value was 0.7 to 3.1 mg.

Q: What about the “amount required to induce hallucinations” value (oral administration) of the same compound?
A: The value was ~30 mg.

Q: And the “amount required to induce hallucinations” value (sublingual or intranasal insufflation)?
A: The value was ~10 mg.

Q: For `O=C(NCCN1CCOCC1)c1ccc(Cl)cc1` [Moclobemide, 4-chloro-N-(2-morpholin-4-ylethyl)benzamide], which half-life [3] is on record?
A: The half-life was “about 2 hours”.

Q: What about the “time by which inhibition of MAO is completely absent” value (MAO) of the same compound?
A: The value was ≤ 24 h.
